In data set [1] the test system is Leishmania donovani. Kind of data set: Antileishmanial activity against Leishmania donovani amastigotes infected in BALB/C mouse assessed as reduction in parasite burden in liver tissue at 12.5 mg/kg, po administered once per day for 5 days relative to control. It is filed as functional. The following applies: 120 h, time 5 day.
Data set [2] relates to Leishmania donovani. The data set is described as follows: Antileishmanial activity against Leishmania donovani amastigotes infected in BALB/C mouse assessed as reduction in parasite burden in liver tissue at 6.25 mg/kg, po administered once per day for 5 days relative to control. It is filed as functional. The note with it: 120 h, time 5 day.
For data set [3], the system named is Leishmania infantum. Kind of data set: Antileishmanial activity against Leishmania infantum amastigotes infected in golden hamster assessed as reduction in parasite load in bone marrow tissue at 50 mg/kg, po administered once daily for 5 days relative to control. It is filed as functional. The note with it: 120 h, time 5 day.
In data set [4] the test system is Leishmania infantum. The data set is described as follows: Antileishmanial activity against Leishmania infantum amastigotes infected in golden hamster assessed as reduction in parasite load in spleen tissue at 50 mg/kg, po administered once daily for 5 days relative to control. The note with it: 120 h, time 5 day. It is filed as functional.
The subject of data set [5] is Leishmania infantum. The data set is described as follows: Antileishmanial activity against Leishmania infantum amastigotes infected in golden hamster assessed as reduction in parasite load in liver tissue at 50 mg/kg, po administered once daily for 5 days relative to control. Format: functional. The note with it: 120 h, time 5 day.
Data set [6] is described as follows: Stability of compound in CD-1 mouse liver microsomes assessed as percentage of parent compound remaining at 1 uM measured after 1 hr.
For another data set, the system named is Trypanosoma cruzi. The data set is described as follows: Antitrypanosomal activity against Trypanosoma cruzi Tulahuen CL2 infected in human MRC-5 cells assessed as parasite growth. Format: functional, organism-based. The note with it: Tulahuen CL2, MRC5.
Data set [7] can be described thus: Selectivity index, ratio IC50 for cytotoxicity against human MRC5 cells to IC50 for antileishmanial activity against Leishmania infantum MHOM/MA(BE)/67 amastigotes infected in macrophages.
Data set [8] has as its system Leishmania infantum. Kind of data set: Antileishmanial activity against Leishmania infantum MHOM/MA(BE)/67 amastigotes infected in macrophages assessed as reduction in parasite burden by giemsa staining based microscopic analysis. It is filed as functional, organism-based.
The nature of data set [9]: Stability of compound in hamster liver microsomes assessed as percentage of parent compound remaining at 1 uM measured after 1 hr. The following applies: chinese hamster.
A further data set deals with MRC5. Kind of data set: Cytotoxicity against human MRC5 cells assessed as cell viability after 72 hrs by fluorimetric analysis. It is filed as ADME, cell-based. The note with it: MRC5, 72 h.
In data set [10] the test system is Leishmania donovani. The data set is described as follows: Antileishmanial activity against Leishmania donovani amastigotes infected in BALB/C mouse assessed as reduction in parasite burden in liver tissue at 50 mg/kg, po administered once per day for 5 days relative to control. It is filed as functional. The following applies: 120 h, time 5 day.
Data set [11] in a line: Stability of compound in human liver microsomes assessed as percentage of parent compound remaining at 1 uM measured after 1 hr.
Data set [12] is described as follows: Kinetic solubility of compound in water at pH7 by HPLC analysis. The following applies: pH 7.
A short description of data set [13]: in vivo. The following applies: mouse, po, 25 mg/kg.
Data set [14] is described as follows: Stability of compound in hamster liver microsomes assessed as percentage of parent compound remaining at 0.5 uM measured after 30 mins. The following applies: chinese hamster, read-out: Stability. It is filed as ADME, Cricetulus griseus, Microsome.
A short description of data set [15]: Volume of distribution at steady state in mouse at 1 mg/kg, iv measured upto 24 hrs LC-MS/MS analysis. The note with it: in vivo.
The nature of data set [16]: AUClast in mouse at 1 mg/kg, iv measured upto 24 hrs LC-MS/MS analysis. The note with it: in vivo.
Data set [17] in a line: Initial plasma concentration in mouse at 1 mg/kg, iv measured upto 24 hrs LC-MS/MS analysis.
The nature of data set [18]: in vivo. The following applies: mouse, po, 25 mg/kg. The source holds these as a separate data set.
Data set [19] in a line: AUClast in mouse at 25 mg/kg, po measured upto 24 hrs LC-MS/MS analysis. The following applies: in vivo.
Data set [20] can be described thus: Stability of compound in CD-1 mouse liver microsomes assessed as percentage of parent compound remaining at 0.5 uM measured after 30 mins. Format: ADME, Microsome. The following applies: read-out: Stability.
Data set [21] in a line: Stability of compound in human liver microsomes assessed as percentage of parent compound remaining at 0.5 uM measured after 30 mins. Format: ADME, Microsome. The note with it: read-out: Stability.
Data set [22] can be described thus: Clearance in mouse at 1 mg/kg, iv measured upto 24 hrs LC-MS/MS analysis. The following applies: in vivo.
Data set [23] in a line: in vivo. The following applies: mouse, po, 25 mg/kg. The source holds these as a separate data set.
For a further data set, the target named is hERG (KCNH2) (Homo sapiens, UniProt Q12809). Kind of data set: Inhibition of human ERG expressed in HEK293 cells at 10 uM relative to control. Format: cell-based. The note with it: HEK293 cells expressing human ERG.
The test system of data set [24] is Leishmania donovani. Kind of data set: Antileishmanial activity against Leishmania donovani amastigotes infected in mouse J774A.1 cells incubated for 72 hrs by luciferase assay. Format: functional, organism-based. The note with it: J774.A1, 72 h.
The nature of data set [25]: Half life in mouse at 1 mg/kg, iv measured upto 24 hrs LC-MS/MS analysis. The following applies: in vivo.
The test system of data set [26] is Leishmania infantum. Kind of data set: animal or person. The note with it: in Mesocricetus auratus, po, 120 h, read-out: INH.
Description: Antileishmanial activity against Leishmania infantum amastigotes infected in golden hamster assessed as reduction in parasite load in liver tissue at 12.5 mg/kg, po administered once daily for 5 days relative to control
In data set [27] the test system is Leishmania donovani. Kind of data set: Antileishmanial activity against Leishmania donovani amastigotes infected in BALB/C mouse assessed as reduction in parasite burden in liver tissue at 25 mg/kg, po administered once per day for 5 days relative to control. The following applies: 120 h, read-out: INH.
Data set [28] concerns Leishmania infantum. Kind of data set: animal or person. The following applies: in Mesocricetus auratus, po, 120 h, read-out: INH. The source holds these as a separate data set.
Description: Antileishmanial activity against Leishmania infantum amastigotes infected in golden hamster assessed as reduction in parasite load in bone marrow tissue at 12.5 mg/kg, po administered once daily for 5 days relative to control
Data set [29] deals with Leishmania donovani. Kind of data set: Antileishmanial activity against Leishmania donovani amastigotes infected in BALB/C mouse assessed as reduction in parasite burden in liver tissue at 3.13 mg/kg, po administered once per day for 5 days relative to control. Format: functional. The following applies: 120 h, time 5 day.
The subject of data set [30] is Leishmania infantum. The data set is described as follows: Antileishmanial activity against Leishmania infantum amastigotes infected in golden hamster assessed as reduction in parasite load in liver tissue at 25 mg/kg, po administered once daily for 5 days relative to control. The following applies: in Mesocricetus auratus, 120 h, read-out: INH.
Data set [31] concerns Leishmania infantum. The data set is described as follows: Antileishmanial activity against Leishmania infantum amastigotes infected in golden hamster assessed as reduction in parasite load in bone marrow tissue at 25 mg/kg, po administered once daily for 5 days relative to control. The following applies: in Mesocricetus auratus, 120 h, read-out: INH.
Data set [32] has as its system Leishmania infantum. The data set is described as follows: animal or person. The note with it: in Mesocricetus auratus, po, 120 h, read-out: INH. This is another data set of the same source.
Description: Antileishmanial activity against Leishmania infantum amastigotes infected in golden hamster assessed as reduction in parasite load in spleen tissue at 12.5 mg/kg, po administered once daily for 5 days relative to control

Converted amounts (≈) assume the structure as drawn.

Data on six compounds can be found in ChEMBL document CHEMBL5036301, “Heteroaryl ether analogues of an antileishmanial 7-substituted 2-nitroimidazooxazine lead afford attenuated hERG risk: In vitro and in vivo appraisal” (Eur J Med Chem, 2021).

Chain of hERG (KCNH2) (Q12809 whole entry): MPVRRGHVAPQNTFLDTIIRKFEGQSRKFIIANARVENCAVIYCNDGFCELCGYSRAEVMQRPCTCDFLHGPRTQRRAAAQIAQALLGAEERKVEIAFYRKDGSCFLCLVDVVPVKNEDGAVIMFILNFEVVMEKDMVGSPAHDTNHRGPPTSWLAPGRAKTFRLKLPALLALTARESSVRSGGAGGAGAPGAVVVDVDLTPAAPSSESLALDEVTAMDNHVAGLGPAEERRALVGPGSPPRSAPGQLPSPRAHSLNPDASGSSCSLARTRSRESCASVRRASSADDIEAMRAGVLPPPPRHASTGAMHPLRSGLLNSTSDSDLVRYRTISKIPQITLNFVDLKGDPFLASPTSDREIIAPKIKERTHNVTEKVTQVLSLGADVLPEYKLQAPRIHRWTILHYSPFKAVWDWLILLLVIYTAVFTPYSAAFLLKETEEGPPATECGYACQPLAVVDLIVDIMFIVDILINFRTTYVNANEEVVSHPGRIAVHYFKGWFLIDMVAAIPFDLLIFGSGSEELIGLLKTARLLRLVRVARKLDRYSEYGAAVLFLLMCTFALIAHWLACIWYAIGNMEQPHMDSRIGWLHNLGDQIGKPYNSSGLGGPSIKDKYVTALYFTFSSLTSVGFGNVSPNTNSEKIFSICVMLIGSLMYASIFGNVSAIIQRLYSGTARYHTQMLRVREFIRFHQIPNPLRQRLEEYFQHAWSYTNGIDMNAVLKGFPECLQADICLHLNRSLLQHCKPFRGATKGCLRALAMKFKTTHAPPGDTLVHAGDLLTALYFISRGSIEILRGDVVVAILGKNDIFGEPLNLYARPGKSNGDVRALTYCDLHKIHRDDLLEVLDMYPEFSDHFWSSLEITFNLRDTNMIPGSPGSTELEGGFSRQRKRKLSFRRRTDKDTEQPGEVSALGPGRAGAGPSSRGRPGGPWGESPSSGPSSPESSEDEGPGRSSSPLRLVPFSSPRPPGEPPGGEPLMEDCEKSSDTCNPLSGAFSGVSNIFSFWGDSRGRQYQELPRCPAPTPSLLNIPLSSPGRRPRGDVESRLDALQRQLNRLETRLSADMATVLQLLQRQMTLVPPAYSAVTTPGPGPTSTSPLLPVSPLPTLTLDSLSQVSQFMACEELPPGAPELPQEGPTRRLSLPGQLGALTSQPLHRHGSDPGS

Regarding `C[C@]1(COc2ccc(OC(F)(F)F)cc2)Cn2cc([N+](=O)[O-])nc2O1`, the inhibition in vivo at 12.5 mg/kg in the data set on Leishmania donovani [1] is more than 99%. Besides, in the data set on Leishmania donovani [2], the inhibition in vivo at 6.25 mg/kg was more than 99%.
`CC1(COc2ccc(OC(F)(F)F)cc2)CCn2cc([N+](=O)[O-])nc2O1` (stereo not drawn): the inhibition in vivo at 50 mg/kg amounted to 99.5% in the data set on Leishmania infantum [3], 99.7% in the data set on Leishmania infantum [4] and 100% with Leishmania infantum [5]. The inhibition in vivo at 12.5 mg/kg with Leishmania donovani [1] is more than 99%.
Turning to `CC1(COc2cnc(C(F)(F)F)cn2)CCn2cc([N+](=O)[O-])nc2O1` (stereo not drawn), the remaining at 1 h, 1 µM in data set [6] is 90%; in [9] it was 36%; in [11], 91%. The 50% inhibitory concentration (IC50) in the data set on Trypanosoma cruzi was 940 nM; in the data set with Leishmania infantum [8], 2200 nM; in the data set on MRC5, more than 64 µM. Besides, the selectivity ratio in [7] is more than 29. Moreover, the inhibition in vivo at 50 mg/kg with Leishmania donovani [10] amounted to 17%. In data set [12], this compound displayed a kinetic solubility of 17 µg/mL (≈ 47.3 µM).
For `O=[N+]([O-])c1cn2c(n1)OC(COc1ncc(Cl)cn1)CC2` (stereo not drawn), in the data set “in vivo [13]”, the Tmax at 24 h came out at 2 h. Also, the remaining at 0.5 h, 0.5 µM was 90% in [14], 100% in data set [20] and 99% in data set [21]. In [15], this compound registered a Vd at 24 h of 0.37 L/kg. The AUC(0-t) at 24 h in [16] is 2070 ng·h/mL; in [19], 3830 ng·h/mL. Also, the IC50 with Trypanosoma cruzi is 39000 nM; with Leishmania infantum [8], more than 64000 nM; in the data set on MRC5, more than 64 µM; with Leishmania donovani [24] it was 120 nM. Moreover, the C0 at 24 h in data set [17] worked out at 1900 ng/mL. Also, the bioavailability at 24 h in “in vivo [18]” was found to be 15%. Besides, in [22], the clearance at 24 h stood at 7.3 mL/min/kg. Also, the Cmax at 24 h in the data set “in vivo [23]” worked out at 760 ng/mL. Moreover, the inhibition at 10 µM at hERG (KCNH2) was determined as 12%. The same compound yielded an exposure (AUC) at 24 h in [25] of 580 ng·h/mL. Moreover, in data set [12], the solubility (kinetic) came to 6.6 µg/mL (≈ 21.2 µM).
With `C[C@]1(COc2ccc(OC(F)(F)F)cc2)CCn2cc([N+](=O)[O-])nc2O1`, the inhibition in vivo at 12.5 mg/kg was found to be 67.8% in the data set with Leishmania infantum [26], 42.5% in the data set on Leishmania infantum [28] and 59.5% with Leishmania infantum [32]. Moreover, the inhibition in vivo at 50 mg/kg with Leishmania infantum [3] was 96.7%; with Leishmania infantum [4], 98%; with Leishmania infantum [5], 99.6%. Also, the inhibition in vivo at 25 mg/kg with Leishmania donovani [27] was more than 99%; with Leishmania infantum [30], 93.6%; in the data set with Leishmania infantum [31], 81.5%. Further, the inhibition in vivo at 3.13 mg/kg with Leishmania donovani [29] came to 51%. In the data set with Leishmania donovani [24], this compound displayed an IC50 of 60 nM.
Take `CC1(COc2ncc(C(F)(F)F)cc2Cl)CCn2cc([N+](=O)[O-])nc2O1` (stereo not drawn): the remaining at 1 h, 1 µM in data set [6] came to 14%; in [9], 0%; in [11] it was 23%. Moreover, the IC50 is 290 nM with Trypanosoma cruzi, 260 nM with Leishmania infantum [8] and more than 64 µM in the data set on MRC5. Moreover, the selectivity ratio in data set [7] is more than 246. Also, the inhibition in vivo at 50 mg/kg in the data set with Leishmania donovani [10] was 0%. In addition, the kinetic solubility in [12] was 11 µg/mL (≈ 28 µM).
